SMILES strings stand for the structures.

One assay concerns GBA mutant human fibroblasts GM008760. Kind of assay: Glucosylceramide lowering assay. To be noted: 10 μM test compound, 4 days culture; GlcCer (C16:0)/Cer (C16:0) molar ratio of test compound group relative to DMSO control group x100; smaller value = glucosylceramide lowering. Format: cell-based. The protocol: Glucosylceramide Lowering Assay
Using GBA mutant human fibroblasts containing mutated glucosylceramidase, the effect of test compounds on glucosylceramide reduction was evaluated.
GBA mutant human fibroblasts GM008760 (Coriel Institute) were seeded in a 96-well multiwell plate at a density of 5,000 cells/100 μL culture solution/well. GlutaMAX (Thermo Fishcer Scientific), penicillin-streptomycin, and Minimum Essential Media (Thermo Fishcer Scientific) supplemented with 15% fetal bovine serum were used as a culture solution. After culturing for 2 days, a 10 mM DMSO solution of the test compound diluted with the culture solution was added to a 96-well plate by 100 μL to adjust a final test compound concentration to 10 μM. After culturing the cells for 4 days in the presence of the test compound, the culture solution was removed, and the cells adhered to the 96-well plate were washed with a phosphate buffer (ThermoFisher Scientific, product number 14190-144). A solvent composed of 50% ethanol and 50% isopropanol was added to the 96-well plate by 100 μL, and the intracellular lipids were dissolved by pipetting. A solution prepared by dissolving N-Octadecanoyl-D35-psychosine (50 ng/mL, Matreya LLC Inc.) as an internal standard in 50% ethanol and 50% isopropanol was added to the sample in an equal volume, and 2.5 μL of the centrifuged supernatant was used as the test compound group.
In the same manner as above, a control group was prepared by using DMSO instead of the 10 mM DMSO solution of the test compound.
For the test compound group and the control group, molar concentrations of glucosylceramide [GlcCer (C16:0)] and ceramide [Cer (C16:0)] were quantified using Rapidfire-MS/MS (API-5000, Turbo-ESI, SRM), and the glucosylceramide lowering effect of the test compound group relative to the control group was evaluated by the following formula. (GlcCer/Cer of test compound group)/(GlcCer/Cer of control group)×100 wherein GlcCer/Cer is the ratio of the molar concentration of glucosylceramide to that of ceramide.
In this test, when the numerical value obtained by the above calculation formula is small, glucosylceramide is metabolized to ceramide by the test compound, or the synthesis of glucosylceramide from ceramide is inhibited by the test compound, that is, it can be said that the test compound has a glucosylceramide lowering effect.
`Cc1cn(C)c(=O)c2c(C(=O)N3CC4CC4(c4ccc(Cl)cc4)C3)cnn12` (stereo not shown) [Example 307, 3-((1-(4-chlorophenyl)-3-azabicyclo[3.1.0]hex-3-yl)carbonyl)-5,7-dimethylpyrazolo[1,5-a]pyrazin-4(5H)-one]: the “10 μM GlcCer/Cer (% of control)” value was 65 % of control. The same measure, in the same setting: then `Cc1cn(C)c(=O)c2c(C(=O)N3CC4CC4(c4ccc(Cl)cc4)C3)cn(C)c12` (stereo not shown) [Example 265, 3-((1-(4-chlorophenyl)-3-azabicyclo[3.1.0]hex-3-yl)carbonyl)-1,5,7-trimethyl-1,5-dihydro-4H-pyrrolo[3,2-c]pyridin-4-one], with 34 % of control.

The assay is the same for the next values; noted with them: Homo sapiens, Fibroblast, 96 h; 10 μM test compound, 4 days culture; GlcCer (C16:0)/Cer (C16:0) molar ratio of test compound group relative to DMSO control group x100; smaller value = glucosylceramide lowering.
Regarding `Cc1cn(C)c(=O)c2c(C(=O)N3CC4CC4(c4ccc(Cl)cc4)C3)cnn12` (stereo not shown) [Example 304, 3-((1-(4-chlorophenyl)-3-azabicyclo[3.1.0]hex-3-yl)carbonyl)-5,7-dimethylpyrazolo[1,5-a]pyrazin-4(5H)-one], the activity at 10 µM came to 64%. On the same count and under the same terms, then `Cc1cn(-c2ccccc2OCC(F)(F)F)c(=O)c2c(C(=O)Nc3ccc(OCC(F)(F)F)nc3)cnn12` [Example 337, 7-methyl-4-oxo-5-[2-(2,2,2-trifluoroethoxy)phenyl]-N-[6-(2,2,2-trifluoroethoxy)pyridin-3-yl]-4,5-dihydropyrazolo[1,5-a]pyrazine-3-carboxamide], with 37%. With `Cc1cn(-c2ccccc2OCC(F)(F)F)c(=O)c2c(C(=O)N3CCC(Oc4ccc(Cl)cc4)CC3)cnn12` [Example 335, 3-[4-(4-chlorophenoxy)piperidine-1-carbonyl]-7-methyl-5-[2-(2,2,2-trifluoroethoxy)phenyl]pyrazolo[1,5-a]pyrazin-4(5H)-one], the activity at 10 µM amounted to 68%. For `Cc1cn(C)c(=O)c2c(C(=O)N3CCC(Oc4ccc(OC(F)(F)F)cc4)CC3)cn(C)c12` [Example 288, 1,5,7-trimethyl-3-((4-(4-(trifluoromethoxy)phenoxy)piperidin-1-yl)carbonyl)-1,5-dihydro-4H-pyrrolo[3,2-c]pyridin-4-one], the activity at 10 µM amounted to 27%.

On to `Cc1cn(C)c(=O)c2c(C(=O)N3CC4CC4(c4ccc(Cl)cc4)C3)cn(C)c12` (stereo not shown) [Example 72, 3-((1-(4-chlorophenyl)-3-azabicyclo[3.1.0]hex-3-yl)carbonyl)-1,5,7-trimethyl-1,5-dihydro-4H-pyrrolo[3,2-c]pyridin-4-one], for which the activity at 10 µM is 38%. For the compound `Cc1cn(C)c(=O)c2c(C(=O)NC(C)(C)c3ccc(Cl)cc3)cn(C)c12` [Example 221, N-(2-(4-chlorophenyl)propan-2-yl)-1,5,7-trimethyl-4-oxo-4,5-dihydro-1H-pyrrolo[3,2-c]pyridine-3-carboxamide], the activity at 10 µM is 44%. For `Cc1cn(C)c(=O)c2c(C(=O)NC3(c4cccc(Cl)c4)CCC3)cn(C)c12` [Example 227, N-(1-(3-chlorophenyl)cyclobutyl)-1,5,7-trimethyl-4-oxo-4,5-dihydro-1H-pyrrolo[3,2-c]pyridine-3-carboxamide], the activity at 10 µM is 59%. The same measure, in the same setting: then `Cc1cn(C)c(=O)c2c(C(=O)N3CCC4(c5ccc(Cl)cc5)C(C3)C4(F)F)cn(C)c12` (stereo not shown) [Example 153, 3-((6-(4-chlorophenyl)-7,7-difluoro-3-azabicyclo[4.1.0]hept-3-yl)carbonyl)-1,5,7-trimethyl-1,5-dihydro-4H-pyrrolo[3,2-c]pyridin-4-one], with 60%.

As for `Cc1cn(-c2ccccc2OCC(F)(F)F)c(=O)c2c(C(=O)Nc3ccc(C(C)(C)O)cc3)cnn12` [Example 340, N-[4-(2-hydroxypropan-2-yl)phenyl]-7-methyl-4-oxo-5-[2-(2,2,2-trifluoroethoxy)phenyl]-4,5-dihydropyrazolo[1,5-a]pyrazine-3-carboxamide], the activity at 10 µM stood at 33%.

Consider `COc1cc(F)ccc1-n1ccc2c(c(C(=O)Nc3ccc(N4CCOCC4)cc3)cn2C)c1=O` [Example 295, 5-(4-fluoro-2-methoxyphenyl)-1-methyl-N-(4-(morpholin-4-yl)phenyl)-4-oxo-4,5-dihydro-1H-pyrrolo[3,2-c]pyridine-3-carboxamide], for which the activity at 10 µM stood at 66%.

Turning to `Cn1cc(C(=O)Nc2ccc(N3CCOCC3)cc2)c2c(=O)n(CC#N)ccc21` [Example 292, 5-(cyanomethyl)-1-methyl-N-(4-(morpholin-4-yl)phenyl)-4-oxo-4,5-dihydro-1H-pyrrolo[3,2-c]pyridine-3-carboxamide], the activity at 10 µM turned out to be 89%. On the same count and under the same terms, for `Cc1cn(C)c(=O)c2c(C(=O)N3CC4CC4(c4cc(Cl)cc(Cl)c4)C3)cn(C)c12` (stereo not shown) [Example 122, 3-((1-(3,5-dichlorophenyl)-3-azabicyclo[3.1.0]hex-3-yl)carbonyl)-1,5,7-trimethyl-1,5-dihydro-4H-pyrrolo[3,2-c]pyridin-4-one] the value was 54%. Turning to `Cc1cn(C)c(=O)c2c(C(=O)NC(C)(C)c3ccc(Cl)cc3)cnn12` [Example 306, N-(2-(4-chlorophenyl)propan-2-yl)-5,7-dimethyl-4-oxo-4,5-dihydropyrazolo[1,5-a]pyrazine-3-carboxamide], the activity at 10 µM is 51%. Same read-out and setting: for `Cc1cn(C)c(=O)c2c(C(=O)N3CC4CC4(c4ccc5ccccc5c4)C3)cn(C)c12` (stereo not shown) [Example 261, 1,5,7-trimethyl-3-((1-(2-naphthyl)-3-azabicyclo[3.1.0]hex-3-yl)carbonyl)-1,5-dihydro-4H-pyrrolo[3,2-c]pyridin-4-one] the value was 65%. For `Cc1cn(CC#N)c(=O)c2c(C(=O)N3CCC(Oc4ccc(Cl)cc4)CC3)cnn12` [Example 330, {3-[4-(4-chlorophenoxy)piperidine-1-carbonyl]-7-methyl-4-oxopyrazolo[1,5-a]pyrazin-5(4H)-yl}acetonitrile], the activity at 10 µM worked out at 68%. On to `Cc1cn(C)c(=O)c2c(C(=O)N3CCC(Oc4ccc(C(F)(F)F)cc4)CC3)cnn12` [Example 313, 5,7-dimethyl-3-((4-(4-(trifluoromethyl)phenoxy)piperidin-1-yl)carbonyl)pyrazolo[1,5-a]pyrazin-4(5H)-one], for which the activity at 10 µM was determined as 52%. For the compound `Cc1cn(C)c(=O)c2c(C(=O)N3CC4CC4(c4ccc(C(F)(F)F)c(F)c4)C3)cn(C)c12` (stereo not shown) [Example 138, 3-((1-(3-fluoro-4-(trifluoromethyl)phenyl)-3-azabicyclo[3.1.0]hex-3-yl)carbonyl)-1,5,7-trimethyl-1,5-dihydro-4H-pyrrolo[3,2-c]pyridin-4-one], the activity at 10 µM came out at 39%. Consider `COc1ccnc(NC(=O)c2cn(C)c3c(C)cn(C)c(=O)c23)c1` [Example 37, N-(4-methoxypyridin-2-yl)-1,5,7-trimethyl-4-oxo-4,5-dihydro-1H-pyrrolo[3,2-c] pyridine-3-carboxamide], for which the activity at 10 µM amounted to 68%. The same measure, in the same setting: for `COc1ccc(C23CC2CN(C(=O)c2cn(C)c4c(C)cn(C)c(=O)c24)C3)cc1` (stereo not shown) [Example 127, 3-((1-(4-methoxyphenyl)-3-azabicyclo[3.1.0]hex-3-yl)carbonyl)-1,5,7-trimethyl-1,5-dihydro-4H-pyrrolo[3,2-c]pyridin-4-one] the value was 65%. Still for that read-out and setting: for `Cc1cn(C)c(=O)c2c(C(=O)N3CC4CC4(c4cccc(Cl)c4)C3)cn(C)c12` (stereo not shown) [Example 118, 3-((1-(3-chlorophenyl)-3-azabicyclo[3.1.0]hex-3-yl)carbonyl)-1,5,7-trimethyl-1,5-dihydro-4H-pyrrolo[3,2-c]pyridin-4-one] the value was 59%; for `Cc1cn(C)c(=O)c2c(C(=O)N3C[C@H]4C[C@@]4(c4ccc(Cl)c(Cl)c4)C3)cn(C)c12` [Example 205, 3-(((1R,5S)-1-(3,4-dichlorophenyl)-3-azabicyclo[3.1.0]hex-3-yl)carbonyl)-1,5,7-trimethyl-1,5-dihydro-4H-pyrrolo[3,2-c]pyridin-4-one], 62%. On the same count and under the same terms, for `Cc1cn(-c2ccccc2OCC(F)(F)F)c(=O)c2c(C(=O)Nc3ccc(C4CC4)nc3)cnn12` [Example 341, N-(6-cyclopropylpyridin-3-yl)-7-methyl-4-oxo-5-[2-(2,2,2-trifluoroethoxy)phenyl]-4,5-dihydropyrazolo[1,5-a]pyrazine-3-carboxamide] the value was 32%; for `Cc1cn(C)c(=O)c2c(C(=O)N3CCC(Oc4cccc(C(F)(F)F)c4)CC3)cn(C)c12` [Example 176, 1,5,7-trimethyl-3-((4-(3-(trifluoromethyl)phenoxy)piperidin-1-yl)carbonyl)-1,5-dihydro-4H-pyrrolo[3,2-c]pyridin-4-one], 56%.

Values taken from patent US11459325B2, “Heterocyclic compound” (Takeda Pharmaceutical Company Limited, priority 2018, dated 2022).
